Data as given in publication PMC6227957, “Peptides derived from cadherin juxtamembrane region inhibit platelet function” (Royal Society Open Science, 2018).

Columns and labels:
washed human platelets [1] = assay: Platelet ATP secretion, luminescence-based assay; type: cell-based; details: for Effect on TRAP-induced platelet ATP secretion, alanine scan and control peptides of KEPLLP: 12.5 µM peptide, n = 4 donors, figure 5a,b; for Platelet ATP secretion induced by peptide alone (basal, no agonist) / Effect on TRAP-induced platelet ATP secretion: 50 µM peptide, washed human platelets; for Platelet ATP secretion induced by peptide alone (basal, no agonist): 12 min at 37°C, without TRAP, n = 6, figure 2; for Effect on TRAP-induced platelet ATP secretion: preincubated 12 min at 37°C, then 4 µM TRAP for 3 min, luminescence arb. units, figures 2, 3c,d
Method: Washed platelets (WPs) were prepared from blood samples collected from healthy donors who were free of medications known to affect platelet function for at least 10 days, as previously described. Written, informed consent was obtained from all participants in line with the Declaration of Helsinki. In brief, venous blood was drawn into 15% (v/v) of acid-citrate-dextrose (ACD) anticoagulant (38 mM citric acid anhydrous, 75 mM sodium citrate, 124 mM dextrose). Blood was centrifuged at 150g for 10 min and the platelet-rich plasma (PRP) was collected. PRP was further centrifuged at 720g for 10 min in the presence of 1 µM prostaglandin E1 (PGE1). The platelet pellet was resuspended in buffer A (6 mM dextrose, 130 mM NaCl, 9 mM NaHCO3, 10 mM sodium citrate, 10 mM Tris base, 3 mM KCl, 0.81 mM KH2PO4 and 0.9 mM MgCl2·6H2O, pH 7.4). The washed platelet count was adjusted to 3 × 10^8 platelets ml^−1 and supplemented with 1.8 mM CaCl2 immediately prior to use.
ATP secretion was measured using a luminescence-based assay, as previously described. Peptides, buffer or vehicle control, in a final volume of 10 µl, were dispensed into white 96-well plates. To this, 70 µl of WPs were gently added. Platelets were incubated with peptides at 37°C for 12 min (under shaking) in the Perkin Elmer 1420 96-well plate reader. Platelet agonist (TRAP; 4 µM; 10 µl) was then added to induce platelet ATP secretion. The suspension (peptide + platelets + agonist) was incubated for 3 min at 37°C with constant shaking. Finally, 10 µl of ATP detecting reagent chronolume (Labmedics, UK) was dispensed into each well and luminescence was measured using the Perkin Elmer 1420 96-well plate reader. Platelet ATP secretion response to peptides was measured in the presence and absence of agonist. Data were expressed as the amount of ATP secretion in luminescence arbitrary units (arb. units). Data are represented as the mean ± standard error mean (s.e.m.) of at least four independent donors.

washed human platelets [2] = assay: Platelet ATP secretion, luminescence-based assay; type: cell-based; details: TRAP 0.25 to 16 µM for 3 min at 37°C; n = 4 donors; figure S1

Question: “EKPLLP [N-terminus reverse charge peptide of KEPLLP, palmitoylated and amidated]” was tested. Which “Effect on TRAP-induced platelet ATP secretion, alanine scan and control peptides of KEPLLP” value (“Effect … of KEPLLP” below) (washed human platelets [1]; 4 µM TRAP) did it give?
Answer: retained partial inhibitory activity

Question: Which “Platelet ATP secretion induced by peptide alone (basal, no agonist)” value (washed human platelets [1]) does the source give for `CCCCCCCCCCCCCCCC(=O)O` [palmitic acid, reference compound] here?
Answer: no effect

Question: What about the “Effect on TRAP-induced platelet ATP secretion” value (washed human platelets [1]; n = 6 donors) of the same compound?
Answer: no effect

Question: Which “Effect of peptide with no palmitoylation on TRAP-induced platelet ATP secretion” value (washed human platelets [1]; 50 µM peptide for 12 min at 37°C before 4 µM TRAP, n = 4, figure S4) does the source give for “KEPLLP [Non-palmitoylated KEPLLP, KEPLLP peptide with no palmitoylation]” here?
Answer: failed to inhibit

Question: With “PLLPKE [randomly scrambled peptide of KEPLLP, palmitoylated and amidated]” as the compound, how does the “Effect … of KEPLLP” value (washed human platelets [1]; 4 µM TRAP) read?
Answer: failed to inhibit

Question: Which results are given for “KEPLLP [short motif truncated from E-cad 2, N-terminally palmitoylated and C-terminally amidated]”?
Answer: Effect of truncated E-cad 2 peptides on TRAP-induced platelet ATP secretion (washed human platelets [1]; 4 µM TRAP, n = 6 donors, figure 4a): most potent inhibitor; Lowest peptide concentration that significantly inhibited TRAP-induced platelet ATP secretion (washed human platelets [1]; dose-response study, 4 µM TRAP, n = 4, figure 4b): 12.5 µM

Question: With “KEPLAP [KEPLLP with one leucine replaced with alanine, palmitoylated and amidated]” as the compound, how does the “Effect … of KEPLLP” value (washed human platelets [1]; 4 µM TRAP) read?
Answer: loss of peptide activity

Question: Which “ATP secretion response at 4 µM TRAP relative to the maximal response” value (washed human platelets [1]; 4 µM TRAP, figure S1) does the source give for SFLLRN [TRAP, reference compound] here?
Answer: approximately 80%

Question: And the “TRAP concentration at which ATP secretion is maximal” value (washed human platelets [2])?
Answer: 16 µM

Question: “KEPAAP [KEPLLP with LL replaced with AA, palmitoylated and amidated]” was tested. Which “Effect … of KEPLLP” value (washed human platelets [1]; 4 µM TRAP) did it give?
Answer: loss of peptide activity

Question: Which “Effect … of KEPLLP” value (washed human platelets [1]; 4 µM TRAP) does the source give for “EEPLLP [KEPLLP with lysine replaced with glutamic acid, palmitoylated and amidated]” here?
Answer: loss of inhibitory effect

Question: With `CCCCCCCCCCCCCCCC(=O)NCCCOCCOCCOCCCNC(=O)CCC(N)=O` [palmitic acid connected to a Ttds linker, reference compound] as the compound, how does the “Platelet ATP secretion induced by peptide alone (basal, no agonist)” value (washed human platelets [1]) read?
Answer: no effect

Question: And the “Effect on TRAP-induced platelet ATP secretion” value (washed human platelets [1]; n = 6 donors)?
Answer: no effect
